Reference: patent US20150352108A1, “AMINO-PYRIMIDINE COMPOUNDS AS INHIBITORS OF TBK1 AND/OR IKK EPSILON” (Alzheimer's Institute of America, priority 2009, published 2015)
Like-named read-outs stand apart in the source and are kept apart here.

Key:
IKKε = target: T1, IKKε (Homo sapiens, UniProt Q14164); test: In-vitro IKKε kinase assay ([γ33]ATP filter-plate); assay type: biochemical
T1 construct: His-tag; made in house; host or cells: Sf9 insect cells
T1 sequence (Q14164 1-716): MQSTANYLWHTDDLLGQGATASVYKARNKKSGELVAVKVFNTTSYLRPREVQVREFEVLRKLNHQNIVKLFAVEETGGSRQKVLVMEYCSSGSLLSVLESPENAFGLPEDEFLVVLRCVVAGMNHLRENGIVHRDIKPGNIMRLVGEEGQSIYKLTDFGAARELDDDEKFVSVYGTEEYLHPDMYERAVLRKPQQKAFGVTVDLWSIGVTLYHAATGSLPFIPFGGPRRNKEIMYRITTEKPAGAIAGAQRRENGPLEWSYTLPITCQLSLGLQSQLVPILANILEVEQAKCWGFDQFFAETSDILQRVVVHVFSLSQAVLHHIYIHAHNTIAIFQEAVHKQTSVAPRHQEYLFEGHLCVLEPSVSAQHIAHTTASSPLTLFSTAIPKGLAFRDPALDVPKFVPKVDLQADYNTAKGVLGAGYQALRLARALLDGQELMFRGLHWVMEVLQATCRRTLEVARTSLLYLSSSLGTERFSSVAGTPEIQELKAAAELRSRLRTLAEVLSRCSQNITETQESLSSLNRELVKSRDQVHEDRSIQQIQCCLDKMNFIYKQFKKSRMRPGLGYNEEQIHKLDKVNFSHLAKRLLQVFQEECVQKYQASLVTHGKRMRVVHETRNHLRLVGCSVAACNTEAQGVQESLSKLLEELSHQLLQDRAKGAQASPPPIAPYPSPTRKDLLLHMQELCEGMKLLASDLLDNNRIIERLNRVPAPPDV
Procedure, shortened: (§1)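 Phosphorylation of casein or myelin basic protein was counted by P-81 filter capture after 30-45 min reactions stopped with phosphoric acid, with counts normalized to DMSO after background subtraction. ATP was twice Km: 60 μM for TBK1 and 32 μM for IKKε, plus [γ33]ATP. Sf9-expressed His-tag enzymes were used at normal/sensitized levels of 0.1/0.02 μg/ml (TBK1) and 0.1/0.015 μg/ml (IKKε).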

TBK1 = target: T2, TBK1 (Homo sapiens, UniProt Q9UHD2); test: In-vitro TBK1 kinase assay ([γ33]ATP filter-plate); assay type: biochemical
T2 construct: His-tag; made in house; host or cells: Sf9 insect cells
T2 sequence (Q9UHD2 1-729): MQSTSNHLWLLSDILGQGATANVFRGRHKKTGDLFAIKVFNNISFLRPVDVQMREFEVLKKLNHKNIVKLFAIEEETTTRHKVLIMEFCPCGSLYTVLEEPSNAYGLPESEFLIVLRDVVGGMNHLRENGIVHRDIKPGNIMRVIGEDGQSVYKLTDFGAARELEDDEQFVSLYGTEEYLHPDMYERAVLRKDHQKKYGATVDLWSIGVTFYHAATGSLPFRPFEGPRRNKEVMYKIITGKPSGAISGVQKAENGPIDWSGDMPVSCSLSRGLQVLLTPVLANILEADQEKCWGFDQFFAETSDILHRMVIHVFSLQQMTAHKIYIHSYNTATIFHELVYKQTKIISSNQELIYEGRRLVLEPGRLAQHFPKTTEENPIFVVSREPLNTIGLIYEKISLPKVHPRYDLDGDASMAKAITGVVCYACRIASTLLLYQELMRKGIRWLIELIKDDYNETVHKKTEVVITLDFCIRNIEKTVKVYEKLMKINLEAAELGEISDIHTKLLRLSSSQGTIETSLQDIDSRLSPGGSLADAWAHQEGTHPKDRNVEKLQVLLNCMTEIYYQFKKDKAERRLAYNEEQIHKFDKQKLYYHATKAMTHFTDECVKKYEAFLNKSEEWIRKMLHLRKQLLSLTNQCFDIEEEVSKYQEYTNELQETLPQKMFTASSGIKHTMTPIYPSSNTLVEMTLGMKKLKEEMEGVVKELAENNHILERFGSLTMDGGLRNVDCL
Procedure, shortened: as §1

[1] = tested on: IKKε-mediated phosphorylation of IRF3; test: In-situ phosphorylation of IRF3 (pIRF3 Ser396 ELISA) in HEK293T cells cotransfected with IRF3 and IKKε; assay type: cell-based; conditions: Homo sapiens, HEK-293T
Procedure, shortened: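 Cells for the IRF7 Western blots carried IRF7 and TBK1 plasmids, were seeded at 150,000/well, exposed to compound overnight and probed for pSer477/Ser479 IRF7. The ELISA readout used IRF3 + IKKε-cotransfected HEK293T at 20,000/well with 20 h treatment, quantifying pSer396 IRF3 relative to DMSO, plus a parallel CellTiter-Glo viability check.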

[2] = text bins, read-out: IC50 for inhibition of the kinase activity of IKKε
[3] = text bins, read-out: IC50 for inhibition of the kinase activity of TBK1
[4] = HEK293T cells, 20 hours, text bins, read-out: IC50 for inhibition of the in-situ IKKε-mediated phosphorylation of IRF3

SMILES | IC50 (IKKε; [2]) [nM] | IC50 (TBK1; [3]) [nM] | IC50 [1, 4] [nM] | IC50 (IKKε; Table 3, read-out: IKKε IC50) [nM] | IC50 (TBK1; Table 3, read-out: TBK1 IC50) [nM] | IC50 ([1]; HEK293T cells in culture, Table 3, read-out: pIRF3 ELISA IC50) [nM]
COc1cc(Nc2nccc(-c3ccc(OC4CCN(C(=O)[C@H](C)O)CC4)c(C#N)c3)n2)ccc1N1CCOCC1 [Example 208, 2-({1-[(2S)-2-hydroxypropanoyl]piperidin-4-yl}oxy)-5-(2-{[3-methoxy-4-(morpholin-4-yl)phenyl]amino}pyrimidin-4-yl)benzonitrile] | < 5 | < 10 | 250 to 500 |  |  | 
COc1cc(Nc2nccc(-c3ccc(OC4CCN(C(=O)CO)C4)c(C#N)c3)n2)ccc1N1CCOCC1 (centres unmarked) [Example 223, 2-{[1-(hydroxyacetyl)pyrrolidin-3-yl]oxy}-5-(2-{[3-methoxy-4-(morpholin-4-yl)phenyl]amino}pyrimidin-4-yl)benzonitrile] | < 5 | < 10 | < 100 |  |  | 
N#Cc1cc(-c2ccnc(Nc3ccc(N4CCOCC4)cc3)n2)ccc1OC1CCN(S(N)(=O)=O)C1 (centres unmarked) [Example 225, 3-[2-cyano-4-(2-{[4-(morpholin-4-yl)phenyl]amino}pyrimidin-4-yl)phenoxy]pyrrolidine-1-sulfonamide] | < 5 | < 10 | 100 to 250 |  |  | 
N#Cc1cc(-c2ccnc(Nc3ccc(N4CCOCC4)cc3)n2)ccc1OC1CCN(C=O)CC1 [Example 242, 2-[(1-formylpiperidin-4-yl)oxy]-5-(2-{[4-(morpholin-4-yl)phenyl]amino}pyrimidin-4-yl)benzonitrile] | < 5 | < 10 | 250 to 500 |  |  | 
COc1cc(Nc2nccc(-c3ccc(OC4CCOCC4)c(C#N)c3)n2)ccc1S(=O)(=O)NC1CCN(C)CC1 [Example 253, 4-({4-[3-cyano-4-(tetrahydro-2H-pyran-4-yloxy)phenyl]pyrimidin-2-yl}amino)-2-methoxy-N-(1-methylpiperidin-4-yl)benzenesulfonamide] | < 5 | < 10 | 250 to 500 |  |  | 
COc1cc(Nc2nccc(-c3ccc(OC4CCOCC4)c(C#N)c3)n2)ccc1OCCCN1CCN(C)CC1 [Example 256, 5-[2-({3-methoxy-4-[3-(4-methylpiperazin-1-yl)propoxy]phenyl}amino)pyrimidin-4-yl]-2-(tetrahydro-2H-pyran-4-yloxy)benzonitrile] | < 5 | < 10 | 100 to 250 |  |  | 
CC(C)COc1ccc(-c2ccnc(Nc3ccc(N4CCOCC4)cc3)n2)cc1C#N [Example 264, 2-(2-Methylpropoxy)-5-(2-{[4-(morpholin-4-yl)phenyl]amino}pyrimidin-4-yl)benzonitrile] | < 5 | < 10 |  | 0.6 | 0.2 | 654
CN1CCC(NCc2cccc(Nc3nccc(-c4ccc(OC5CCOCC5)c(C#N)c4)n3)c2)CC1 [Example 271, 5-{2-[(3-{[(1-Methylpiperidin-4-yl)amino]methyl}phenyl)amino]pyrimidin-4-yl}-2-(tetrahydro-2H-pyran-4-yloxy)benzonitrile] | < 5 | < 10 | < 100 |  |  | 
CN(C)CCNS(=O)(=O)c1ccc(Nc2nccc(-c3ccc(OC4CCOCC4)c(C#N)c3)n2)cc1 [compound 334, 4-({4-[3-cyano-4-(tetrahydro-2H-pyran-4-yloxy)phenyl]pyrimidin-2-yl}amino)-N-[2-(dimethylamino)ethyl] benzenesulfonamide] | < 5 | < 10 | 100 to 250 |  |  | 
COc1cc(Nc2nccc(-c3ccc(OC4CCOCC4)c(C#N)c3)n2)ccc1C(=O)N1CCN(C)CC1 [compound 354, 5-[2-({3-methoxy-4-[(4-methylpiperazin-1-yl)carbonyl]phenyl}amino)pyrimidin-4-yl]-2-(tetrahydro-2H-pyran-4-yloxy)benzonitrile] | < 5 | < 10 | < 100 |  |  | 
COc1cc(Nc2nccc(-c3ccc(OC4CCOCC4)c(C#N)c3)n2)ccc1C(=O)N1CC(N(C)C)C1 [compound 377, 5-{2-[(4-{[3-(dimethylamino)azetidin-1-yl]carbonyl}-3-methoxyphenyl)amino]pyrimidin-4-yl}-2-(tetrahydro-2H-pyran-4-yloxy)benzonitrile] | < 5 | < 10 | 100 to 250 |  |  | 

Other lines, results leading:

IC50 (IKKε; [2]) [nM] | IC50 (TBK1; [3]) [nM] | IC50 [1, 4] [nM] | IC50 (IKKε; Table 3, read-out: IKKε IC50) [nM] | IC50 (TBK1; Table 3, read-out: TBK1 IC50) [nM] | IC50 ([1]; HEK293T cells in culture, Table 3, read-out: pIRF3 ELISA IC50) [nM] | SMILES
5 to 50 | < 10 | 100 to 250 |  |  |  | CC(C)(C)CC(=O)Nc1ccc(-c2ccnc(Nc3ccc(N4CCOCC4)cc3)n2)cc1C#N [Example 202, N-[2-cyano-4-(2-{[4-(morpholin-4-yl)phenyl]amino}pyrimidin-4-yl)phenyl]-3,3-dimethylbutanamide]
< 5 | < 10 | 250 to 500 |  |  |  | COc1ccc(Nc2nccc(-c3ccc(N(C)C)c(C#N)c3)n2)cc1OC [Example 206, 5-{2-[(3,4-Dimethoxyphenyl)amino]pyrimidin-4-yl}-2-(dimethylamino) benzonitrile]
< 5 | < 10 | < 100 |  |  |  | COc1cc(Nc2nccc(-c3ccc(OC4CCOCC4)c(C#N)c3)n2)ccc1S(=O)(=O)N(C)C1CCN(C)CC1 [Example 212]
5 to 50 | < 10 | 100 to 250 |  |  |  | N#Cc1cc(-c2ccnc(Nc3ccc(N4CCOCC4)cc3)n2)ccc1OCC1CCCN(C(=O)CO)C1 (centres unmarked) [Example 219, 2-{[1-(hydroxyacetyl)piperidin-3-yl]methoxy}-5-(2-{[4-(morpholin-4-yl)phenyl]amino}pyrimidin-4-yl)benzonitrile]
< 5 | < 10 | 250 to 500 |  |  |  | COc1cc(Nc2nccc(-c3ccc(OC4CCOCC4)c(C#N)c3)n2)ccc1O [Example 262, 5-{2-[(4-hydroxy-3-methoxyphenyl)amino]pyrimidin-4-yl}-2-(tetrahydro-2H-pyran-4-yloxy)benzonitrile]
< 5 | < 10 | 250 to 500 |  |  |  | COc1cc(Nc2nccc(-c3ccc(OC4CCOCC4)c(C#N)c3)n2)cc(OC)c1OC [Example 290, 2-(Tetrahydro-2H-pyran-4-yloxy)-5-{2-[(3,4,5-trimethoxyphenyl)amino]pyrimidin-4-yl}benzonitrile]
< 5 | < 10 | 100 to 250 |  |  |  | COc1cc(Nc2nccc(-c3ccc(OC4CCOCC4)c(C#N)c3)n2)ccc1C(=O)NCCC1CCCN1C (centres unmarked) [compound 307, 4-({4-[3-cyano-4-(tetrahydro-2H-pyran-4-yloxy)phenyl]pyrimidin-2-yl}amino)-2-methoxy-N-[2-(1-methylpyrrolidin-2-yl)ethyl]benzamide]
< 5 | < 10 | 100 to 250 |  |  |  | CN1CCC(NS(=O)(=O)c2ccc(Nc3nccc(-c4ccc(OC5CCOCC5)c(C#N)c4)n3)cc2)CC1 [compound 371, 4-({4-[3-cyano-4-(tetrahydro-2H-pyran-4-yloxy)phenyl]pyrimidin-2-yl}amino)-N-(1-methylpiperidin-4-yl)benzenesulfonamide]
